This is an account of results in patent US9649333B2, “Oxygenation procedures for newborns and devices for use therein” (UTI Limited Partnership, priority 2008, dated 2017).

The test has as its system preterm infants. The settings on record: for time immediately after birth to reach the target range: FIG. 3. From the text:
Blinded, randomized control trial of delivery room resuscitation in infants 32 weeks gestation comparing three O2 strategies. The High O2 Burden (HOB) group received a static concentration of 100% O2. In the Moderate O2 Burden (MOB) and Low O2 Burden (LOB) groups, resuscitation started with 100% and 21% O2, respectively. The inspired oxygen concentration was adjusted by 20% every 15 seconds in the MOB and LOB groups until the target SpO2 range of 85% to 92% was reached. SpO2 measurements were recorded every 2 seconds from the right wrist (pre-ductal) and the maximum sensitivity setting of the pulse oximetry was used. An anesthesia monitor continuously measured and recorded respiratory parameters including the peak inspiratory pressure, respiratory rate, end-tidal CO2 and inspired O2 concentration.
There were three sets of preterm infants that were part of this study. The LOB (low oxygen burden group—resuscitation began with room air given followed by a 20% increase every 15 sec as long as the oxygen saturation was less than 85%), MOB ([…] began with 100% oxygen given and decreased 20% every 15 sec as long as the oxygen saturation was greater than 92%) and HOB (high oxygen burden group—100% oxygen given continuously). The inventors enrolled 106 preterm infants (≦32 weeks gestation) (LOB=34, MOB=[…]).

Where [1] appears, read: HOB group: static 100% O2, target SpO2 85-92%.
Where [2] appears, read: LOB group: start 21% O2, titrated.
[3] abbreviates: LOB group: start 21% O2, titrated, target SpO2 85-92%.
The mark [4] stands for this setting: MOB group: start 100% O2, titrated.
Setting [5] is: MOB group: start 100% O2, titrated, target SpO2 85-92%.

Where two headings read alike, the source gives them in different places.

Turning to `O=O` [oxygen], the “Mean duration of resuscitation” value (HOB group: static 100% O2) worked out at 590.62 s, the “Mean duration of resuscitation” value under setting [2] came out at 677.00 s and the “Mean duration of resuscitation” value under setting [4] was 665.00 s. In addition, the “mean proportion of resuscitation time spent in the target SpO2 range (85-92%)” value stood at 11% (HOB group: static 100% O2), 16% under setting [2] and 21% under setting [4]. Further, the “Mean proportion of time above target” value reads like this: under setting [1], 0.49; under setting [3], 0.23; under setting [5], 0.28. Moreover, the “Mean proportion of time below target” value by setting is: under setting [1], 0.40; under setting [3], 0.61; under setting [5], 0.51. Further, under setting [1], the “proportion of time above range” value was 49%. The “time immediately after birth to reach the target range” value reads like this: (HOB group, target SpO2 85-92%) “approximately 5 minutes”; (MOB group, target SpO2 85-92%) “approximately 5 minutes”. In addition, the “Mean proportion of time in target” value is, setting by setting: (High O2 Burden (HOB) group: static 100% O2, target SpO2 85-92%) 0.11; (Low O2 Burden (LOB) group: start 21% O2, adjusted by 20% every 15 seconds, target SpO2 85-92%) 0.16; (Moderate O2 Burden (MOB) group: start 100% O2, adjusted by 20% every 15 seconds, target SpO2 85-92%) 0.21. Besides, the “proportion of time below range” value under setting [3] turned out to be 61%. Further, the “more time in target range than the LOB group” value (MOB group versus LOB group, target SpO2 85-92%) was “approximately 25%”.
